The results in this text go back to ChEMBL document CHEMBL3784917, “Recent Progress in Histone Demethylase Inhibitors” (J Med Chem, 2016).

Usually IC50 stands for the concentration that gives 50% inhibition.

The target in assay [1] is Lysine-specific demethylase 5C (Homo sapiens, UniProt P41229). As to the kind of experiment: biochemical.
In assay [2] the target is Lysine-specific demethylase 5B (Homo sapiens, UniProt Q9UGL1).
Assay [3] concerns the target T1, Lysine-specific demethylase 2B (Homo sapiens, UniProt Q8NHM5).
T1 sequence (Q8NHM5 whole entry): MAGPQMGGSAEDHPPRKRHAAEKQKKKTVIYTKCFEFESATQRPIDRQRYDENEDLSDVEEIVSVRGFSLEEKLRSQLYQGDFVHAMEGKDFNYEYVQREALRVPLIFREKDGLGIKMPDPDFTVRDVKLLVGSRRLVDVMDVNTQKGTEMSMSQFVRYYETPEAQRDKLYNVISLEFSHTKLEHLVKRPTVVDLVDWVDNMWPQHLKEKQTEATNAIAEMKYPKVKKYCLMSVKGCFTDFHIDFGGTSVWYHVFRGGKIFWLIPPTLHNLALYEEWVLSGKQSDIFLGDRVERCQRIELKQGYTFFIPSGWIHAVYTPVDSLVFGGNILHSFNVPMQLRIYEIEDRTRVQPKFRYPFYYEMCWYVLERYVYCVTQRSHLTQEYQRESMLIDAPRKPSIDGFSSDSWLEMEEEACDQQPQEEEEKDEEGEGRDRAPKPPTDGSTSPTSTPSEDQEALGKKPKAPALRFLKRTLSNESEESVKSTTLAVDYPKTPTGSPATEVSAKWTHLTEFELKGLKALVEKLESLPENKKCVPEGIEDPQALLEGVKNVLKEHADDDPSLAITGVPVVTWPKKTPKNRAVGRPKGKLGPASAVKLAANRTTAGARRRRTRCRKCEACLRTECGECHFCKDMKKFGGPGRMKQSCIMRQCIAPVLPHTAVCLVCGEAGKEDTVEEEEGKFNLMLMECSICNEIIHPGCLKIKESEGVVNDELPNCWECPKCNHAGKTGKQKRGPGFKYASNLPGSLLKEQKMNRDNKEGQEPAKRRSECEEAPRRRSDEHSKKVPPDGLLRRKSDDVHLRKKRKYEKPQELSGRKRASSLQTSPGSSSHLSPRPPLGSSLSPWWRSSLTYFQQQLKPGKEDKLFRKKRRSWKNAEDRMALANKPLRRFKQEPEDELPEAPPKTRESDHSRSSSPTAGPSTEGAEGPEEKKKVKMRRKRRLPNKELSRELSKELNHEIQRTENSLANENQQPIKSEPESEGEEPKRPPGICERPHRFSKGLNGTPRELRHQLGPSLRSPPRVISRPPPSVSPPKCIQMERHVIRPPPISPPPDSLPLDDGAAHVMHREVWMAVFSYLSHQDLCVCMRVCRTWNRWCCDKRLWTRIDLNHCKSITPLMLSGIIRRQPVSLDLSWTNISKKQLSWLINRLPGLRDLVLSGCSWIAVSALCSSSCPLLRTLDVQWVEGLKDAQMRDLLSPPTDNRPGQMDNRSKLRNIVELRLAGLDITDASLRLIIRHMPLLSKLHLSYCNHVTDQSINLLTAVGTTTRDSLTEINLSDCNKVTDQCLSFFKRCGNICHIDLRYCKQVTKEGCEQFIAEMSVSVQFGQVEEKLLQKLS
The assay can be described thus: biochemical.

Assay [4] addresses T2, Lysine-specific demethylase 4A (Homo sapiens, UniProt O75164).
T2 sequence (O75164 whole entry): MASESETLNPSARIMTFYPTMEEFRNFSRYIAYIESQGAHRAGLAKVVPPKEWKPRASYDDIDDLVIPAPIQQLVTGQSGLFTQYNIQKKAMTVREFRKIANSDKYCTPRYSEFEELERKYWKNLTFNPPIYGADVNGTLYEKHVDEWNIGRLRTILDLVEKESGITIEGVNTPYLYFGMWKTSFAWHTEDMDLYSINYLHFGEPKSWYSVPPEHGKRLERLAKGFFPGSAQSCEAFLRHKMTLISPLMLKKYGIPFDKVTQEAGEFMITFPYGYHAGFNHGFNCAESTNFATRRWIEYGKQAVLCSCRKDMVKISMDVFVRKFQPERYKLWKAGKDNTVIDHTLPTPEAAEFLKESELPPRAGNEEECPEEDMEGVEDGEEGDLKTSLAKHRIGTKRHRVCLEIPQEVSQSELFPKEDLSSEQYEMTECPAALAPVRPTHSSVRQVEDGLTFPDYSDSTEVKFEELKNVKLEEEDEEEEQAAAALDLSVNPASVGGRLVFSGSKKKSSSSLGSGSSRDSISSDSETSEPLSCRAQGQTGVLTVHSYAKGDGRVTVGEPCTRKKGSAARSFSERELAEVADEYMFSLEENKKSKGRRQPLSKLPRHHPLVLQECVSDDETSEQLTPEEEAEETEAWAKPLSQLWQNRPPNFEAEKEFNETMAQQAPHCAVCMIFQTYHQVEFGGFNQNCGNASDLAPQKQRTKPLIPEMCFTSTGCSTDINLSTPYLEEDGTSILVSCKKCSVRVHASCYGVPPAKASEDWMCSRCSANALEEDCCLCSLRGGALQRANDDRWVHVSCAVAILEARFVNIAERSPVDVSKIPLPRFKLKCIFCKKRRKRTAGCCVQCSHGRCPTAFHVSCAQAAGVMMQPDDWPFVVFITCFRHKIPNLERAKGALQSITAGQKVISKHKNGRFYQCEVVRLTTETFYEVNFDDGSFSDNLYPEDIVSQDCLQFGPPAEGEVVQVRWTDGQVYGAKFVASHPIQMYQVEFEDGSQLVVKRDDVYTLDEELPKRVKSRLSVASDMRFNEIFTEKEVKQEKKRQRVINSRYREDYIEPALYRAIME
The assay can be described thus: Inhibition of recombinant human N-terminal His-tagged KDM4A (1 to 350 residues) expressed in Escherichia coli using methylated biotin-H3K9 substrate preincubated for 10 mins followed by substrate addition measured after 10 mins by AlphaLisa assay.

The target of assay [5] is Lysine-specific demethylase 3B (Homo sapiens, UniProt Q7LBC6). The assay can be described thus: biochemical.
Lysine-specific demethylase 3B, sequence (Q7LBC6 whole entry): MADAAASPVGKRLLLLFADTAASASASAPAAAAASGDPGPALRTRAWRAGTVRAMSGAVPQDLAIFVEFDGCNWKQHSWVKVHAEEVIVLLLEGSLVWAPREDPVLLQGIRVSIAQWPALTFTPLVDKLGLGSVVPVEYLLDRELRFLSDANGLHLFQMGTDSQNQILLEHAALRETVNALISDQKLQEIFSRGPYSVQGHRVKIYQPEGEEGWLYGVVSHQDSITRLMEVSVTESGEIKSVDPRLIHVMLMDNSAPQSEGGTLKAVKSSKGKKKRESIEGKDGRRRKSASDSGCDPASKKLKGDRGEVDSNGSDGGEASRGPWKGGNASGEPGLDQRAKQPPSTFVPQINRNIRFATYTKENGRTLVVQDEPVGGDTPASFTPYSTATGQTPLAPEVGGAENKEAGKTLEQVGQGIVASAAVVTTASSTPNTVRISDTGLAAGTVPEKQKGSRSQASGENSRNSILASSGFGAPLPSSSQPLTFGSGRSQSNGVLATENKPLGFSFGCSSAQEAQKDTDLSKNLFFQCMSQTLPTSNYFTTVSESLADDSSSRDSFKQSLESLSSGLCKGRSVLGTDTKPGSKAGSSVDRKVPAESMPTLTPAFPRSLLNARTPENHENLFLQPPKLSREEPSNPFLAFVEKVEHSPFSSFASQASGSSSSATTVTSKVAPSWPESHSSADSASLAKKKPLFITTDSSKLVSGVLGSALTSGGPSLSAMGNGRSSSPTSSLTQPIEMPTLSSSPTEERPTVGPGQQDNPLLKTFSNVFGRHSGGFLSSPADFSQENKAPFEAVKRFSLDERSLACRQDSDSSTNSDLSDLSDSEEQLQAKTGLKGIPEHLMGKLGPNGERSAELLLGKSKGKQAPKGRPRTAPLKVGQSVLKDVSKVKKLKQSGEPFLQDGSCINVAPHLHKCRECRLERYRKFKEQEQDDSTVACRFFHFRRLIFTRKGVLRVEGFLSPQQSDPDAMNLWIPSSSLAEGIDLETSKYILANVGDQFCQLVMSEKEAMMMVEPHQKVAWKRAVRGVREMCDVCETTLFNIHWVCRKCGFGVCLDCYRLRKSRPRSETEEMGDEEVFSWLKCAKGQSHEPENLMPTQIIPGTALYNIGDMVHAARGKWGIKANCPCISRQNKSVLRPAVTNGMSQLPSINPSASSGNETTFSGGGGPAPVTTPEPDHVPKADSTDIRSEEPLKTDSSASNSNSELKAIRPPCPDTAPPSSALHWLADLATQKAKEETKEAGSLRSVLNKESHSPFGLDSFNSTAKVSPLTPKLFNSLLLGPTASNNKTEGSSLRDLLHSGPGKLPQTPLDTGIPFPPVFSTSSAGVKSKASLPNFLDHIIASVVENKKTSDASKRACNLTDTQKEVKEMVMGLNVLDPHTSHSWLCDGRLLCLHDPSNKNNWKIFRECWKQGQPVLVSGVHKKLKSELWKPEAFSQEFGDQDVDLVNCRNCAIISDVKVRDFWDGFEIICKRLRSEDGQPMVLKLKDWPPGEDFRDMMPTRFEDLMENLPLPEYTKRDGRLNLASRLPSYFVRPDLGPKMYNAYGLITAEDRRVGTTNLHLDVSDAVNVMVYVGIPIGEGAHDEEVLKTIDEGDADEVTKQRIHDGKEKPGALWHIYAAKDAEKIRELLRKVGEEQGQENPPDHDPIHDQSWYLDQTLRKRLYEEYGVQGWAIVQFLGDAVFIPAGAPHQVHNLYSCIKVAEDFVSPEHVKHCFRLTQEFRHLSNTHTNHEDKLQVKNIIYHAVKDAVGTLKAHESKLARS

Lysine-specific demethylase 5C, sequence (P41229 whole entry): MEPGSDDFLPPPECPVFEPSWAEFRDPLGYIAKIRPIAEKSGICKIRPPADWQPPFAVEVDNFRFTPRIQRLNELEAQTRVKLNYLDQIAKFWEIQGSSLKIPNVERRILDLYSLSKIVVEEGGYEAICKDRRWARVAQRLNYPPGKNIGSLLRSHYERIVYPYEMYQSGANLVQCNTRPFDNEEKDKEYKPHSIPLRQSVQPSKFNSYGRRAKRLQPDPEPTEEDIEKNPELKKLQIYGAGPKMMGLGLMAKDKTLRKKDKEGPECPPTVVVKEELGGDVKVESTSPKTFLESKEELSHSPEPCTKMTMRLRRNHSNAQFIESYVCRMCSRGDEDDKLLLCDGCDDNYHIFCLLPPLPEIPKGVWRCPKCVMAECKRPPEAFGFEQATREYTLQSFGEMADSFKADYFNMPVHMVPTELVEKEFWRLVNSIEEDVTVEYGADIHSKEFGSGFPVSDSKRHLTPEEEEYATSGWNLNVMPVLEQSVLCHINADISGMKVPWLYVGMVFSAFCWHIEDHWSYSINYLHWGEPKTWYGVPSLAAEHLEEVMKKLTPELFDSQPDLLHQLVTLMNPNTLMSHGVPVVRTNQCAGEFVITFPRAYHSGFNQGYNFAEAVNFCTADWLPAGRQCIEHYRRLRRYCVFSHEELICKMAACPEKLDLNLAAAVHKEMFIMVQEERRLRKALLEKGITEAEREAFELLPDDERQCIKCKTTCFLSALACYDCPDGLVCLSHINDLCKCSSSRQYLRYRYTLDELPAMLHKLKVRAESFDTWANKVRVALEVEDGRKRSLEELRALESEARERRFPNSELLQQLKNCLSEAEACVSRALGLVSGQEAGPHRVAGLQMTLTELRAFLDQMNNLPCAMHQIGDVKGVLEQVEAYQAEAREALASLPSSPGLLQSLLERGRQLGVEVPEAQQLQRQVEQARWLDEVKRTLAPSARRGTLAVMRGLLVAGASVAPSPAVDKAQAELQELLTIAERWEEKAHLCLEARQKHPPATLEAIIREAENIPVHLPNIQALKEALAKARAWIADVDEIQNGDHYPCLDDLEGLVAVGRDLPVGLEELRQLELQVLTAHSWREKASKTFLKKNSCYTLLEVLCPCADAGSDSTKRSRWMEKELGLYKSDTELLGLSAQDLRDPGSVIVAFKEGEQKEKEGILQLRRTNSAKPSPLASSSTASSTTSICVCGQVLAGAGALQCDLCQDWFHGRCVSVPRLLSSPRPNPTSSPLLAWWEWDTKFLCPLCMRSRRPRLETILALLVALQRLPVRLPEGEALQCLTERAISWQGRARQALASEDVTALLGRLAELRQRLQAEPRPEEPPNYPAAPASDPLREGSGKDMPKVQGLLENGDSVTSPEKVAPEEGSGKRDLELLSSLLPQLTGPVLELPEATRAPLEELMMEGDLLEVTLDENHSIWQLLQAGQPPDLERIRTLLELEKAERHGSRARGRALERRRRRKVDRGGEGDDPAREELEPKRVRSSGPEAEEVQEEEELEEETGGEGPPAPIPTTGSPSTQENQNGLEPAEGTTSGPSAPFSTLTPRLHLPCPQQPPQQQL
Lysine-specific demethylase 5B, sequence (Q9UGL1 whole entry): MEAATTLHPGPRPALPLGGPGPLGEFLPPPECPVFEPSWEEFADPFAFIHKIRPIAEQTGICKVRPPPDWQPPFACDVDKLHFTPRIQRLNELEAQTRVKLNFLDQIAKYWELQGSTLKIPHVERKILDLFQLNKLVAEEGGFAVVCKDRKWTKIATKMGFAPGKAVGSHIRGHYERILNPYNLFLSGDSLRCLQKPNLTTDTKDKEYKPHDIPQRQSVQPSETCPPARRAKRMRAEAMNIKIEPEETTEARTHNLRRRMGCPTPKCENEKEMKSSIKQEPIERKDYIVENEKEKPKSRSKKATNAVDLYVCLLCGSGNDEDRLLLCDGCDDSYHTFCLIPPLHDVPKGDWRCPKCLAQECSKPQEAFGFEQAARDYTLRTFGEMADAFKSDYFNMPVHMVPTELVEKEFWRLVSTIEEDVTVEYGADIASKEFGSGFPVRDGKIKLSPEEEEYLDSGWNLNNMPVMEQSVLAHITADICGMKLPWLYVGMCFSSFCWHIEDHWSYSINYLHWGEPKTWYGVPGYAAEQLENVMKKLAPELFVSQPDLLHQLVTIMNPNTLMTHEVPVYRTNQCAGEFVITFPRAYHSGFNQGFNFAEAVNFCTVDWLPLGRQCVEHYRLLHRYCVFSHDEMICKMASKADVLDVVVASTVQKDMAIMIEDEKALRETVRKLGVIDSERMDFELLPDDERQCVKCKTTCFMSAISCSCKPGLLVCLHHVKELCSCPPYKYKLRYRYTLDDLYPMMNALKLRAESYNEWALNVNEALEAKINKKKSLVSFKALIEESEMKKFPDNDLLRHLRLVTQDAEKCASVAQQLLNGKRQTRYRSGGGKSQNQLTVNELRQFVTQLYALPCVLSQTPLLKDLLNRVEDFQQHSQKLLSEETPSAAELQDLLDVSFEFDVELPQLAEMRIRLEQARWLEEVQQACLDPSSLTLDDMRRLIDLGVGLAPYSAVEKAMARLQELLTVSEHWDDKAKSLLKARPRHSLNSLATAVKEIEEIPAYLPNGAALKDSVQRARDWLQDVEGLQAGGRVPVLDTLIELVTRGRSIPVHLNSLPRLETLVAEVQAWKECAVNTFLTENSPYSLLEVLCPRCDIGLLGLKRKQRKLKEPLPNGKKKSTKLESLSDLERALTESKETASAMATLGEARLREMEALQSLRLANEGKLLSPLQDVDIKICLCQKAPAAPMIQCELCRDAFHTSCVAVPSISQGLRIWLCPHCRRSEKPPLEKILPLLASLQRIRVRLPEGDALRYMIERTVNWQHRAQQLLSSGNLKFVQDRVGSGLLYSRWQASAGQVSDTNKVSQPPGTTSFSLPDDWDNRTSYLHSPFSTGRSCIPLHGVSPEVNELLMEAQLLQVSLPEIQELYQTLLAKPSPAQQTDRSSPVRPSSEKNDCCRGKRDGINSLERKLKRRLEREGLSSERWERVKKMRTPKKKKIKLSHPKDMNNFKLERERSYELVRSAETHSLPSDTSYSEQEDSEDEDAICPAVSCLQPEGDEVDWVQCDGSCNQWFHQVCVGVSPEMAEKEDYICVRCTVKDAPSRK

Take `CCN(CCN(C)C)C(=O)CNCc1cc(CNC(=O)C(F)(F)F)ccn1`: the IC50 in assay [1] was 250 nM; in assay [2] it was 250 nM; in assay [3], > 2500 nM; in assay [4] it was > 2500 nM; in assay [5] it was > 2500 nM.
With `CCN(CC)CCCCNCc1cc(C=O)ccn1`, the IC50 in assay [1] is < 250 nM; in assay [2] it was < 250 nM; in assay [3], > 2500 nM; in assay [4] it was > 2500 nM; in assay [5], > 2500 nM.
`CCN(CCN(C)C)C(=O)CNCc1cc(C(=O)O)ccn1`: the IC50 in assay [1] is < 100 nM; in assay [2], < 100 nM; in assay [3], 100 nM; in assay [4], < 100 nM; in assay [5], > 1000 nM.
